Patent US20220289794A1, “SYNTHETIC ANTIMICROBIAL PEPTIDES” (priority 2019, published 2022)
In brackets after ≈: the same amount, converted by molar mass. Like-named read-outs stand apart in the source and are kept apart here. Blank lines part the entries; values can stand above or below the compound they belong to. Residues, ends and D or L forms follow the SMILES beside them.

What was measured:
[1] = tested on: Klebsiella pneumoniae (KPC, ATCC BAA-1705); assay: microbe, parasite or virus in culture; details: ATCCBAA1705, 24 h
[2] = tested on: Pseudomonas aeruginosa (PSA, ATCC 27883); assay: microbe, parasite or virus in culture; details: ATCC27883, 24 h
[3] = tested on: Escherichia coli (E. Coli, ATCC 25922); assay: microbe, parasite or virus in culture; details: ATCC25922, 24 h
[4] = tested on: Methicillin-resistant Staphylococcus aureus MRSA (ATCC BAA-1556); assay: microbe, parasite or virus in culture; details: ATCCBAA1556|MRSA, 24 h
MRSA (ATCC BAA-1556) = details: MRSA (ATCC BAA-1556), antibiotic alone
[5] = tested on: Pseudomonas aeruginosa (PSA, ATCC 27883); assay: Synergy checkerboard assay (FIC index); type: cell-based; details: Pseudomonas aeruginosa (ATCC 27883), antibiotic alone
[6] = tested on: Escherichia coli (E. Coli, ATCC 25922); details: Table 25; Escherichia coli (ATCC 25922); antibiotic alone
[7] = tested on: Klebsiella pneumoniae (KPC, ATCC BAA-1705); details: Table 26; Klebsiella pneumoniae (ATCC BAA-1705); antibiotic alone
[8] = tested on: Klebsiella pneumoniae (ATCC BAA-1705); details: ATCC BAA-1705
[9] = tested on: Escherichia coli (ATCC 25922); details: ATCC 25922
[10] = tested on: Methicillin-resistant Staphylococcus aureus MRSA (ATCC BAA-1556); details: ATCC BAA-1556
[11] = tested on: Pseudomonas aeruginosa (ATCC 27883); details: ATCC 27883
[12] = tested on: Escherichia coli (ATCC 25922); type: cell-based
Description: (§1) All bacteria pathogens tested clinically reported multi-drug resistant strains. The antibacterial activity was tested against Gram-negative strains namely; Pseudomonas aeruginosa (PSA), Klebsiella pneumoniae (KPC), Escherichia coli (E. coli) and Gram-positive Methicillin-resistant Staphylococcus aureus (MRSA). The minimum inhibitory concentration (MIC) is the lowest concentration of the antibiotic that inhibits microbial growths. MIC is determined by visual inspection or use of spectrophotometer plate reader to determine media turbidity. On the other hand, the minimum bactericidal concentration (MBC) is the lowest concentration that kills […] of bacterial growth. Cytotoxicity of peptides in the hepatic cell line, human skin fibroblast cell line, heart/myocardium cells, and human lung fibroblast cells is shown in FIGS. 36-46). […] (IFX-315)-Au-NP with antibiotics are shown in FIGS. 49-58 when the gold nanoparticles are formed by the peptide followed by addition of the antibiotic. […] (IFX-301) with antibiotics (1:1 ratio) first and then used in the synthesis of Au-NP in antibacterial activities is shown in FIGS. 59-68.
(§2) The MBC is identified by determining the lowest concentration of antibacterial agent that reduces the viability (concentration of peptides necessary to achieve a bactericidal effect) of the initial bacterial inoculum by ≥99.9%.

[13] = tested on: Methicillin-resistant Staphylococcus aureus MRSA (ATCC BAA-1556); type: cell-based
Description: as §1, §2

[14] = tested on: Enterococcus faecium ATCC 27270; details: ATCC 27270
[15] = read-out: Klebsiella pneumoniae (ATCC BAA-1705) MIC, Table 29, [R6W4] (IFX-318), antibiotics alone and PHY-MIX (1:1 w/w)
[16] = read-out: Klebsiella pneumoniae (ATCC BAA-1705) MIC, Table 30, [R5W4K] (IFX-315), antibiotics alone and PHY-MIX (1:1 w/w)
[17] = read-out: Klebsiella pneumoniae (ATCC BAA-1705) MIC, Table 31, [R5W4] (IFX-301), antibiotics alone and PHY-MIX (1:1 w/w)
[18] = read-out: Pseudomonas aeruginosa (ATCC 27883) MIC, Table 29, [R6W4] (IFX-318), antibiotics alone and PHY-MIX (1:1 w/w)
[19] = read-out: Pseudomonas aeruginosa (ATCC 27883) MIC, Table 30, [R5W4K] (IFX-315), antibiotics alone and PHY-MIX (1:1 w/w)
[20] = read-out: Escherichia coli (ATCC 25922) MIC, Table 30, [R5W4K] (IFX-315), antibiotics alone and PHY-MIX (1:1 w/w)
[21] = read-out: Escherichia coli (ATCC 25922) MIC, Table 31, [R5W4] (IFX-301), antibiotics alone and PHY-MIX (1:1 w/w)
[22] = read-out: MRSA (ATCC BAA-1556) MIC, Table 31, [R5W4] (IFX-301), antibiotics alone and PHY-MIX (1:1 w/w)

Compound: N=C(N)NCCC[C@@H]1NC(=O)[C@H](CCCNC(=N)N)NC(=O)[C@H](CCCNC(=N)N)NC(=O)[C@H](Cc2c[nH]c3ccccc23)NC(=O)[C@H](Cc2c[nH]c3ccccc23)NC(=O)[C@H](Cc2c[nH]c3ccccc23)NC(=O)[C@H](Cc2c[nH]c3ccccc23)NC(=O)[C@H](CCCNC(=N)N)NC1=O [[R4W4] (IFX-326)] (cyclo(RRRRWWWW))
MIC Klebsiella pneumoniae (ATCC BAA-1705) (KPC): 32 µg/mL (≈ 23.4 µM)
MIC MRSA ATCC BAA-1556 (MRSA): 4 µg/mL (≈ 2.92 µM)
MIC Escherichia coli (ATCC 25922) (E. coli): 16 µg/mL (≈ 11.7 µM)
MIC Pseudomonas aeruginosa (ATCC 27883) (PSA): 64 µg/mL (≈ 46.7 µM)

Compound: N=C(N)NCCC[C@@H]1NC(=O)[C@H](CCCNC(=N)N)NC(=O)[C@H](CCCNC(=N)N)NC(=O)[C@H](CCCNC(=N)N)NC(=O)[C@H](Cc2c[nH]c3ccccc23)NC(=O)[C@H](Cc2c[nH]c3ccccc23)NC(=O)[C@H](Cc2c[nH]c3ccccc23)NC(=O)[C@H](Cc2c[nH]c3ccccc23)NC(=O)[C@H](CCCNC(=N)N)NC(=O)[C@H](CCCNC(=N)N)NC(=O)[C@H](CCCNC(=N)N)NC1=O [[R7W4] (IFX-322)] (cyclo(RRRRRRRWWWW))
MIC Klebsiella pneumoniae (ATCC BAA-1705) (KPC): 64 µg/mL (≈ 34.8 µM)
MIC MRSA ATCC BAA-1556 (MRSA): 16 µg/mL (≈ 8.7 µM)
MIC Escherichia coli (ATCC 25922) (E. coli): 32 µg/mL (≈ 17.4 µM)
MIC Pseudomonas aeruginosa (ATCC 27883) (PSA): 32 µg/mL (≈ 17.4 µM)

Compound: N=C(N)NCCC[C@@H]1NC(=O)[C@H](CCCNC(=N)N)NC(=O)[C@H](CCCNC(=N)N)NC(=O)[C@H](Cc2c[nH]c3ccccc23)NC(=O)[C@H](Cc2c[nH]c3ccccc23)NC(=O)[C@H](Cc2c[nH]c3ccccc23)NC(=O)[C@H](Cc2c[nH]c3ccccc23)NC(=O)[C@H](Cc2c[nH]c3ccccc23)NC(=O)[C@H](CCCNC(=N)N)NC(=O)[C@H](CCCNC(=N)N)NC1=O [[R5W5] (IFX-314)] (cyclo(RRRRRWWWWW))
MIC Klebsiella pneumoniae (ATCC BAA-1705) (KPC): 32 µg/mL (≈ 18.7 µM)
MIC MRSA ATCC BAA-1556 (MRSA): 4 µg/mL (≈ 2.34 µM)
MIC Escherichia coli (ATCC 25922) (E. coli): 16 µg/mL (≈ 9.35 µM)
MIC Pseudomonas aeruginosa (ATCC 27883) (PSA): 32 µg/mL (≈ 18.7 µM)

Compound: NC[C@H]1O[C@H](O[C@H]2[C@H](O)[C@@H](O[C@H]3O[C@H](CO)[C@@H](O)[C@H](N)[C@H]3O)[C@H](N)C[C@@H]2N)[C@H](N)C[C@@H]1O [Tobramycin]
MIC of antibiotic (MRSA (ATCC BAA-1556)): 0.5 µg/mL
MIC of antibiotic (MRSA (ATCC BAA-1556); Table 25): 0.5 µg/mL
MIC [1, 15]: 16 µg/mL (≈ 34.2 µM)
MIC [1, 16]: 16 µg/mL (≈ 34.2 µM)
MIC [1, 17]: 16 µg/mL (≈ 34.2 µM)
MIC of antibiotic ([5]; Table 26): 0.5 µg/mL
antibiotic MIC ([5]; Table 27): 0.5 µg/mL
MIC [2, 18]: 0.5 µg/mL (≈ 1.07 µM)
MIC [2, 19]: 0.5 µg/mL (≈ 1.07 µM)
MIC ([2]; read-out: Pseudomonas aeruginosa (ATCC 27883) MIC, Table 31, [R5W4] (IFX-301), antibiotics alone and PHY-MIX (1:1 w/w)): 0.5 µg/mL (≈ 1.07 µM)
MIC of antibiotic [6]: 8 µg/mL
MIC [3, 20]: 8 µg/mL (≈ 17.1 µM)
MIC [3, 21]: 8 µg/mL (≈ 17.1 µM)
MIC ([4]; read-out: MRSA (ATCC BAA-1556) MIC, Table 30, [R5W4K] (IFX-315), antibiotics alone and PHY-MIX (1:1 w/w)): 0.5 µg/mL (≈ 1.07 µM)
MIC [4, 22]: 0.5 µg/mL (≈ 1.07 µM)
MIC of antibiotics [7]: 16 µg/mL

Compound: H-RRRRRWWWWK-OH [Linear R5W4K (SEQ ID NO. 36)]
MIC Klebsiella pneumoniae (ATCC BAA-1705) (KPC): 64 µg/mL
MIC MRSA ATCC BAA-1556 (MRSA): 8 µg/mL
MIC Escherichia coli (ATCC 25922) (E. coli): 32 µg/mL
MIC Pseudomonas aeruginosa (ATCC 27883) (PSA): 32 µg/mL

Compound: N=C(N)NCCC[C@H](NC(=O)[C@H](CCCNC(=N)N)NC(=O)[C@H](CCCNC(=N)N)NC(=O)[C@H](CCCNC(=N)N)NC(=O)[C@H](CS)NC(=O)[C@H](Cc1c[nH]c2ccccc12)NC(=O)[C@H](Cc1c[nH]c2ccccc12)NC(=O)[C@H](Cc1c[nH]c2ccccc12)NC(=O)[C@@H](N)Cc1c[nH]c2ccccc12)C(=O)N[C@@H](CS)C(=O)O [IFX-332] (H-WWWWCRRRRC-OH)
KPC (ATCC BAA-1705) MIC [8]: 512 µg/mL
E. coli (ATCC 25922) MIC [9]: 128 µg/mL
MRSA (ATCC BAA-1556) MIC [10]: 64 µg/mL
PSA (ATCC 27883 MIC) [11]: 256 µg/mL
E. coli (ATCC 25922) MBC [12]: 256 µg/mL
MRSA (ATCC BAA-1556) MBC [13]: 128 µg/mL

Compound: N=C(N)NCCC[C@@H]1NC(=O)[C@H](CCCNC(=N)N)NC(=O)[C@H](CCCNC(=N)N)NC(=O)[C@H](Cc2c[nH]c3ccccc23)NC(=O)[C@H](Cc2c[nH]c3ccccc23)NC(=O)[C@H](Cc2c[nH]c3ccccc23)NC(=O)[C@H](Cc2c[nH]c3ccccc23)NC(=O)[C@H](CCCNC(=N)N)NC(=O)[C@H](CCCNC(=N)N)NC1=O [[R5W4] (IFX-301)]
MIC Klebsiella pneumoniae (ATCC BAA-1705) (KPC): 32 µg/mL (≈ 21 µM)
MIC (MRSA): 4 µg/mL (≈ 2.62 µM)
MIC MRSA ATCC BAA-1556 (MRSA): 4 µg/mL (≈ 2.62 µM)
MIC Escherichia coli (ATCC 25922) (E. coli): 16 µg/mL (≈ 10.5 µM)
MIC [14]: 8 µg/mL (≈ 5.24 µM)
MIC Pseudomonas aeruginosa (ATCC 27883) (PSA): 32 µg/mL (≈ 21 µM)

Now from value to compound:

MIC ([1]; read-out: Klebsiella pneumoniae (ATCC BAA-1705) MIC, Table 28, IFX-031, antibiotics alone and PHY-MIX (1:1 w/w)): > 32 µg/mL
MIC [1, 15]: > 32 µg/mL
MIC [1, 16]: > 32 µg/mL
MIC [1, 17]: > 32 µg/mL
MIC [2, 18]: > 32 µg/mL
MIC [2, 19]: > 32 µg/mL
MIC ([3]; read-out: Escherichia coli (ATCC 25922) MIC, Table 28, IFX-031, antibiotics alone and PHY-MIX (1:1 w/w)): > 32 µg/mL
MIC ([3]; read-out: Escherichia coli (ATCC 25922) MIC, Table 29, [R6W4] (IFX-318), antibiotics alone and PHY-MIX (1:1 w/w)): > 32 µg/mL
MIC [3, 20]: > 32 µg/mL
MIC [3, 21]: > 32 µg/mL
MIC ([4]; read-out: MRSA (ATCC BAA-1556) MIC, Table 28, IFX-031, antibiotics alone and PHY-MIX (1:1 w/w)): > 32 µg/mL
MIC [4, 22]: > 32 µg/mL
Compound: Cc1ncc([N+](=O)[O-])n1CCO [Metronidazole]

MIC Klebsiella pneumoniae (ATCC BAA-1705) (KPC): 64 µg/mL (≈ 62.3 µM)
MIC MRSA ATCC BAA-1556 (MRSA): 16 µg/mL (≈ 15.6 µM)
MIC Escherichia coli (ATCC 25922) (E. coli): 32 µg/mL (≈ 31.2 µM)
MIC Pseudomonas aeruginosa (ATCC 27883) (PSA): 128 µg/mL (≈ 125 µM)
Compound: N=C(N)NCCC[C@@H]1NC(=O)[C@H](CCCNC(=N)N)NC(=O)[C@H](Cc2c[nH]c3ccccc23)NC(=O)[C@H](Cc2c[nH]c3ccccc23)NC(=O)[C@H](Cc2c[nH]c3ccccc23)NC(=O)[C@H](CCCNC(=N)N)NC1=O [[R3W3] (IFX-302)] (cyclo(WWWRRR))

MIC Klebsiella pneumoniae (ATCC BAA-1705) (KPC): 64 µg/mL (≈ 38.1 µM)
MIC (MRSA): 8 µg/mL (≈ 4.76 µM)
MIC MRSA ATCC BAA-1556 (MRSA): 4 µg/mL (≈ 2.38 µM)
MIC Escherichia coli (ATCC 25922) (E. coli): 32 µg/mL (≈ 19 µM)
MIC Pseudomonas aeruginosa (ATCC 27883) (PSA): 16 µg/mL (≈ 9.51 µM)
Compound: N=C(N)NCCC[C@@H]1NC(=O)[C@H](CCCNC(=N)N)NC(=O)[C@H](CCCNC(=N)N)NC(=O)[C@H](CCCNC(=N)N)NC(=O)[C@H](Cc2c[nH]c3ccccc23)NC(=O)[C@H](Cc2c[nH]c3ccccc23)NC(=O)[C@H](Cc2c[nH]c3ccccc23)NC(=O)[C@H](Cc2c[nH]c3ccccc23)NC(=O)[C@H](CCCNC(=N)N)NC(=O)[C@H](CCCNC(=N)N)NC1=O [[R6W4] (IFX-318)] (cyclo(RRRRRRWWWW))
